PubChem BioAssay AID1963977 (Molecular Pharmacology Branch, DTP, NCI, 2024)

System: 624824-186-R-J3-PDC multicell spheroids, viability
Experiment: Anticancer human tumor 624824-186-R-J3-PDC patient-derived colon adenocarcinoma cell line growth inhibition [PI3K]
Conditions: for IC50: curve of first compound; for viability, T/C: stronger effect = lower value
Outline: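 Viability of mixed-cell spheroids was determined after exposure to pairwise combinations, one partner being inavolisib, alpelisib, duvelisib or copanlisib. Highest tested concentration matched clinical Cmax where known and 10 microM where not, descending in half-log steps.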

[1] = second compound 0.00316 µM, first compound 0.0316 µM
[2] = second compound 0.00316 µM, first compound 0.1 µM
[3] = second compound 0.01 µM, first compound 0.0316 µM
[4] = second compound 0.01 µM, first compound 0.1 µM
[5] = second compound 0.0316 µM, first compound 0.0316 µM
[6] = second compound 0.0316 µM, first compound 0.1 µM
[7] = second compound 0.1 µM, first compound 0.0316 µM
[8] = second compound 0.1 µM, first compound 0.1 µM
[9] = second compound 0.316 µM, first compound 0.0316 µM
[10] = second compound 0.316 µM, first compound 0.1 µM
[11] = second compound 1 µM, first compound 0.0316 µM
[12] = second compound 1 µM, first compound 0.1 µM
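Further: spheroids exposed to agents for seven days before luminescence read.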
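Wherever viability, T/C is given: luminescent signal used as a stand-in for spheroid viability; percent viability relative to DMSO vehicle control wells taken as 100%.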

**Q.** How did the IC50 (second compound 0.00316 µM) turn out when `CC(C)n1nc(-c2ccc3oc(N)nc3c2)c2c(N)ncnc21` + COc1c(OCCCN2CCOCC2)ccc2c3n(c(=NC(=O)c4cnc(N)nc4)nc12)CCN3 was run?
**A.** > 100 nM

**Q.** And the IC50 (second compound 0.01 µM)?
**A.** > 100 nM

**Q.** And the IC50 (second compound 0.0316 µM)?
**A.** 60.2 nM

**Q.** And the IC50 (second compound 0.1 µM)?
**A.** 29.2 nM

**Q.** What about the IC50 (second compound 0.316 µM) of the same molecule?
**A.** 1.66 nM

**Q.** And the IC50 (second compound 1 µM)?
**A.** < 0.316 nM

**Q.** And the viability, T/C (second compound 0.00316 µM, first compound 0.000316 µM)?
**A.** 108%

**Q.** What about the viability, T/C (second compound 0.00316 µM, first compound 0.001 µM) of the same molecule?
**A.** 106%

**Q.** And the viability, T/C (second compound 0.00316 µM, first compound 0.00316 µM)?
**A.** 106%

**Q.** What about the viability, T/C (second compound 0.00316 µM, first compound 0.01 µM) of the same molecule?
**A.** 99.2%

**Q.** What about the viability, T/C [1] of the same molecule?
**A.** 89.1%

**Q.** And the viability, T/C [2]?
**A.** 52.6%

**Q.** What about the viability, T/C (second compound 0.01 µM, first compound 0.000316 µM) of the same molecule?
**A.** 101%

**Q.** What about the viability, T/C (second compound 0.01 µM, first compound 0.001 µM) of the same molecule?
**A.** 102%

**Q.** What about the viability, T/C (second compound 0.01 µM, first compound 0.00316 µM) of the same molecule?
**A.** 109%

**Q.** And the viability, T/C (second compound 0.01 µM, first compound 0.01 µM)?
**A.** 95.9%

**Q.** And the viability, T/C [3]?
**A.** 82.2%

**Q.** And the viability, T/C [4]?
**A.** 52.2%

**Q.** And the viability, T/C (second compound 0.0316 µM, first compound 0.000316 µM)?
**A.** 97.8%

**Q.** What about the viability, T/C (second compound 0.0316 µM, first compound 0.001 µM) of the same molecule?
**A.** 96.7%

**Q.** And the viability, T/C (second compound 0.0316 µM, first compound 0.00316 µM)?
**A.** 91.9%

**Q.** And the viability, T/C (second compound 0.0316 µM, first compound 0.01 µM)?
**A.** 92.3%

**Q.** And the viability, T/C [5]?
**A.** 63.6%

**Q.** What about the viability, T/C [6] of the same molecule?
**A.** 39.2%

**Q.** And the viability, T/C (second compound 0.1 µM, first compound 0.000316 µM)?
**A.** 83.2%

**Q.** And the viability, T/C (second compound 0.1 µM, first compound 0.001 µM)?
**A.** 80.2%

**Q.** What about the viability, T/C (second compound 0.1 µM, first compound 0.00316 µM) of the same molecule?
**A.** 80.2%

**Q.** And the viability, T/C (second compound 0.1 µM, first compound 0.01 µM)?
**A.** 72.1%

**Q.** And the viability, T/C [7]?
**A.** 48.3%

**Q.** And the viability, T/C [8]?
**A.** 27.5%

**Q.** And the viability, T/C (second compound 0.316 µM, first compound 0.000316 µM)?
**A.** 53.5%

**Q.** And the viability, T/C (second compound 0.316 µM, first compound 0.001 µM)?
**A.** 48.6%

**Q.** And the viability, T/C (second compound 0.316 µM, first compound 0.00316 µM)?
**A.** 51.1%

**Q.** And the viability, T/C (second compound 0.316 µM, first compound 0.01 µM)?
**A.** 39.2%

**Q.** And the viability, T/C [9]?
**A.** 31.5%

**Q.** What about the viability, T/C [10] of the same molecule?
**A.** 22.2%

**Q.** What about the viability, T/C (second compound 1 µM, first compound 0.000316 µM) of the same molecule?
**A.** 28.5%

**Q.** And the viability, T/C (second compound 1 µM, first compound 0.001 µM)?
**A.** 28.8%

**Q.** And the viability, T/C (second compound 1 µM, first compound 0.00316 µM)?
**A.** 31.4%

**Q.** What about the viability, T/C (second compound 1 µM, first compound 0.01 µM) of the same molecule?
**A.** 23.9%

**Q.** What about the viability, T/C [11] of the same molecule?
**A.** 24.9%

**Q.** What about the viability, T/C [12] of the same molecule?
**A.** 18.6%

**Q.** How did the IC50 (second compound 0.00316 µM) turn out when `CC1(C)CCC(CN2CCN(c3ccc(C(=O)NS(=O)(=O)c4ccc(NCC5CCOCC5)c([N+](=O)[O-])c4)c(Oc4cnc5[nH]ccc5c4)c3)CC2)=C(c2ccc(Cl)cc2)C1` + COc1c(OCCCN2CCOCC2)ccc2c3n(c(=NC(=O)c4cnc(N)nc4)nc12)CCN3 was run?
**A.** > 10000 nM

**Q.** What about the IC50 (second compound 0.01 µM) of the same molecule?
**A.** > 10000 nM

**Q.** And the IC50 (second compound 0.0316 µM)?
**A.** > 10000 nM

**Q.** What about the IC50 (second compound 0.1 µM) of the same molecule?
**A.** > 10000 nM

**Q.** What about the IC50 (second compound 0.316 µM) of the same molecule?
**A.** < 31.6 nM

**Q.** And the IC50 (second compound 1 µM)?
**A.** < 31.6 nM

**Q.** What about the viability, T/C [1] of the same molecule?
**A.** 114%

**Q.** What about the viability, T/C [2] of the same molecule?
**A.** 99.2%

**Q.** And the viability, T/C (second compound 0.00316 µM, first compound 0.316 µM)?
**A.** 111%

**Q.** What about the viability, T/C (second compound 0.00316 µM, first compound 1 µM) of the same molecule?
**A.** 102%

**Q.** What about the viability, T/C (second compound 0.00316 µM, first compound 3.16 µM) of the same molecule?
**A.** 121%

**Q.** What about the viability, T/C (second compound 0.00316 µM, first compound 10 µM) of the same molecule?
**A.** 105%

**Q.** And the viability, T/C [3]?
**A.** 93.7%

**Q.** What about the viability, T/C [4] of the same molecule?
**A.** 99.5%

**Q.** And the viability, T/C (second compound 0.01 µM, first compound 0.316 µM)?
**A.** 105%

**Q.** What about the viability, T/C (second compound 0.01 µM, first compound 1 µM) of the same molecule?
**A.** 105%

**Q.** What about the viability, T/C (second compound 0.01 µM, first compound 3.16 µM) of the same molecule?
**A.** 105%

**Q.** What about the viability, T/C (second compound 0.01 µM, first compound 10 µM) of the same molecule?
**A.** 107%

**Q.** And the viability, T/C [5]?
**A.** 95%

**Q.** What about the viability, T/C [6] of the same molecule?
**A.** 96.8%

**Q.** What about the viability, T/C (second compound 0.0316 µM, first compound 0.316 µM) of the same molecule?
**A.** 89.6%

**Q.** What about the viability, T/C (second compound 0.0316 µM, first compound 1 µM) of the same molecule?
**A.** 87.6%

**Q.** What about the viability, T/C (second compound 0.0316 µM, first compound 3.16 µM) of the same molecule?
**A.** 99.1%

**Q.** What about the viability, T/C (second compound 0.0316 µM, first compound 10 µM) of the same molecule?
**A.** 85.2%

**Q.** And the viability, T/C [7]?
**A.** 73.1%

**Q.** What about the viability, T/C [8] of the same molecule?
**A.** 83.8%

**Q.** And the viability, T/C (second compound 0.1 µM, first compound 0.316 µM)?
**A.** 74.4%

**Q.** And the viability, T/C (second compound 0.1 µM, first compound 1 µM)?
**A.** 75.5%

**Q.** And the viability, T/C (second compound 0.1 µM, first compound 3.16 µM)?
**A.** 65%

**Q.** And the viability, T/C (second compound 0.1 µM, first compound 10 µM)?
**A.** 80%

**Q.** What about the viability, T/C [9] of the same molecule?
**A.** 50.7%

**Q.** What about the viability, T/C [10] of the same molecule?
**A.** 46.9%

**Q.** And the viability, T/C (second compound 0.316 µM, first compound 0.316 µM)?
**A.** 50.7%

**Q.** And the viability, T/C (second compound 0.316 µM, first compound 1 µM)?
**A.** 47.2%

**Q.** And the viability, T/C (second compound 0.316 µM, first compound 3.16 µM)?
**A.** 43.1%

**Q.** What about the viability, T/C (second compound 0.316 µM, first compound 10 µM) of the same molecule?
**A.** 57.9%

**Q.** And the viability, T/C [11]?
**A.** 29.5%

**Q.** What about the viability, T/C [12] of the same molecule?
**A.** 33.7%

**Q.** And the viability, T/C (second compound 1 µM, first compound 0.316 µM)?
**A.** 31.5%

**Q.** And the viability, T/C (second compound 1 µM, first compound 1 µM)?
**A.** 33.7%

**Q.** And the viability, T/C (second compound 1 µM, first compound 3.16 µM)?
**A.** 26.9%

**Q.** What about the viability, T/C (second compound 1 µM, first compound 10 µM) of the same molecule?
**A.** 30.8%
